In paper PMC10232258 (Journal of Antimicrobial Chemotherapy, 2023):
One block for each compound: values may come before it.

What was measured:
HIV-1 = conditions: background statement; cited from earlier work
[1] = average of five clinical studies (Table S4)
[2] = ref Yager et al. 50; cited from earlier work
Population PK analysis = assay type: in vivo, human; conditions: for CLTFV: full model
[3] = cited from earlier work
[4] = full final model, bootstrap median

Compound: CC(C)OC(=O)[C@H](C)N[P@](=O)(CO[C@H](C)Cn1cnc2c(N)ncnc21)Oc1ccccc1 [tenofovir alafenamide]
Potency relative to tenofovir disoproxil fumarate (HIV-1): 10 times
Higher intracellular exposure in tenofovir diphosphate, TAF versus TDF [1]: six-fold
Tenofovir diphosphate levels, TAF once every 3 days versus TDF every day [2]: 2.6 times
Increase of relative bioavailability F (absorption of TAF) by cobicistat (Population PK analysis; TAF 10 mg with cobicistat versus 25 mg alone (F = 1)): 115%
Lower plasma levels of tenofovir under standard TAF versus TDF dosage [3]: 90%

CLTFV (Population PK analysis; 80-year-olds): 36 L/h
CLTFV lower than in normal kidney function (Population PK analysis; CLCR of 20 mL/min (stage 3 CKD) versus normal kidney function): 57%
CLTFV, apparent clearance of tenofovir (Population PK analysis; base model, ka fixed to 2 h−1): 39.9 L/h
θAge, age effect on CLTFV (Population PK analysis; [4]): −0.242
θBlack or Hispano American, ethnicity effect on CLTFV (Population PK analysis; [4]): 0.120
θCobicistat, effect of cobicistat on F (Population PK analysis; [4]): 1.16
θPotent P-gp inhibitors, effect on CLTFV (Population PK analysis; [4]): −0.119
CLTFV, apparent clearance of tenofovir (Population PK analysis; full final model, bootstrap median (n = 2000 samples)): 42.3 L/h
θBlack or Hispano American, ethnicity effect on CLTFV (Population PK analysis; full final model, estimate): 0.119
θPotent P-gp inhibitors, effect on CLTFV (Population PK analysis; full final model, estimate): −0.121
θAge, age effect on CLTFV (Population PK analysis; full final model, estimate, Agemedian = 51 years): −0.244
CLTFV, apparent clearance of tenofovir (Population PK analysis; full final model, estimate, CLCR-ref 100 mL/min, median age 51 years): 42.2 L/h
VTFV, apparent volume of distribution of tenofovir (Population PK analysis; full final model, estimate, PLWH after oral TAF): 2390 L
Tmax (Population PK analysis; human, plasma, oral): 2.4 h
half-life (Population PK analysis; human, plasma, oral): 46 h
Vd (Population PK analysis; human, plasma, oral, VTFV, apparent volume of distribution of tenofovir, full final model, bootstrap median (n = 2000 samples)): 2400 L
CLTFV (Population PK analysis; individuals with CLCR of 20 mL/min (stage 3 CKD)): 18 L/h
CLTFV (Population PK analysis; normal kidney function): 42 L/h
CLTFV (Population PK analysis; younger PLWH, median age 51 years): 42 L/h
Compound: C[C@H](Cn1cnc2c(N)ncnc21)OCP(=O)(O)O [tenofovir]
